# Reference: patent US7884117B2, “Carbonylamino pyrrolopyrazoles, potent kinase inhibitors” (Pfizer Inc., priority 2005, dated 2011)
# How the values were obtained:
# [1] = target: T1, PAK4 Kinase domain (PAK4 KD) (Homo sapiens, UniProt O96013); test: PAK4 kinase domain enzymatic assay (PK/LDH-coupled, Ki); format: biochemical; conditions: PAK4 Kinase Domain
# T1 construct: Cloning, expression, and purification of recombinant PAK4 Kinase domain (PAK4 KD); His tag (pET28a(+)/pET24a(+), Ni-NTA purification) (N, cleaved yes); GST (pGST4.5, glutathione column) (N, cleaved yes); made in house; host or cells: E. coli BL21(DE3)
# T1 sequence (O96013 321-572 limits assumed): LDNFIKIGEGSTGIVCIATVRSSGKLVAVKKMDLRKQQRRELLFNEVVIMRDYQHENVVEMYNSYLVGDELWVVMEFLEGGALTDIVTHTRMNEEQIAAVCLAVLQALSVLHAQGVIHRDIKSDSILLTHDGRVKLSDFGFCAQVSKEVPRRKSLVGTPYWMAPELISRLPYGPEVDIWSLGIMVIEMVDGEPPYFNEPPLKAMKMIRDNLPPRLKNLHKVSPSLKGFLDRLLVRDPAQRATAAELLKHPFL
# [2] = target: T2, PAK4 kinase activity in whole cells (TR-293-KDG, modified HEK 293) (Homo sapiens, UniProt O96013); test: PAK4 cellular assay: sandwich ELISA of PAK4-dependent phosphorylation of GEF-H1b in TR-293-KDG cells; format: cell-based; conditions: 3-hour exposure
# T2 construct: engineered to overexpress both GEF-H1b and the kinase domain (KD) of PAK4; expressed in transfected cells; host or cells: TR-293-KDG (modified HEK 293, Trex system, Invitrogen)
# T2 sequence (O96013 321-572 limits assumed): as above
# Experimental: A sandwich ELISA method was used to measure the PAK4 kinase activity in whole cells. The level of PAK4-dependent phosphorylation of GEF-H1b can be determined by monitoring the binding of a phosphospecific antibody to GEF-H1b. […] The KD of PAK4 is inducible in this cell line by tetracycline (Trex system, Invitrogen). […] To establish a phosphorylation event on GEF-HL, cells are induced with doxycycline to express the PAK4 KD. […] Candidate substance effect is measured as the ability to block this phosphorylation event.
# ELISA plate was prepared by pre-coating the plates with a capture antibody (α-HA-tag mouse monoclonal antibody), blocked with BSA, and washed in 0.1% tween 20 in tris-buffered saline (TBST). […] Cells were then lysed with a modified RIPA buffer supplemented with protease inhibitors. […] Between all subsequent steps plates were washed 4 times with TBST. Detection antibody (recognizing the phospho-specific eptitope on GEF-H1b) was added for 1 hour, followed by addition of an enzyme linked goat α-rabbit secondary antibody for 45 minutes. […] EC50 values were calculated by sigmoid curve fitting using a four-parameter analysis.
Ki [1] [nM],EC50 [2] [nM],SMILES
756,12,"CC(C)C[C@@H](CN(C)C)OC(=O)N1Cc2c(NC(=O)C3CCC3)n[nH]c2C1(C)C [Example 80, (S)-1-[(dimethylamino)methyl]-3-methylbutyl 3-[(cyclobutylcarbonyl)amino]-6,6-dimethyl-4,6-dihydropyrrolo[3,4-c]pyrazole-5(1H)-carboxylate]"
240,104,"CN(C)C[C@@H](OC(=O)N1Cc2c(NC(=O)c3cccc4c3OCC4)n[nH]c2C1(C)C)c1ccccc1 [Example 81, (1S)-2-(dimethylamino)-1-phenylethyl 3-[(2,3-dihydro-1-benzofuran-7-ylcarbonyl)amino]-6,6-dimethyl-4,6-dihydropyrrolo[3,4-c]pyrazole-5(1H)-carboxylate]"
434,301,"CN(Cc1ccccc1)C[C@@H](OC(=O)N1Cc2c(NC(=O)c3ccc(F)cc3)n[nH]c2C1(C)C)c1ccccc1 [Example 82, (1S)-2-[benzyl(methyl)amino]-1-phenylethyl 3-[(4-fluorobenzoyl)amino]-6,6-dimethyl-4,6-dihydropyrrolo[3,4-c]pyrazole-5(1H)-carboxylate]"
143,4,"CN(C)C[C@@H](OC(=O)N1Cc2c(NC(=O)c3ccno3)n[nH]c2C1(C)C)c1ccccc1 [Example 85, (S)-2-(dimethylamino)-1-phenylethyl 3-(isoxazole-5-carboxamido)-6,6-dimethylpyrrolo[3,4-c]pyrazole-5(1H,4H,6H)-carboxylate]"
68.7,18,"Cc1cc(C(=O)Nc2n[nH]c3c2CN(C(=O)O[C@H](CN(C)C)c2ccccc2)C3(C)C)no1 [Example 86, (S)-2-(dimethylamino)-1-phenylethyl 6,6-dimethyl-3-(5-methylisoxazole-3-carboxamido)pyrrolo[3,4-c]pyrazole-5(1H,4H,6H)-carboxylate]"
35.6,88,"COc1ccc(CC(=O)Nc2n[nH]c3c2CN(C(=O)O[C@H](CN(C)C)c2ccccn2)C3(C)C)cc1 [Example 88, (1R)-2-(dimethylamino)-1-pyridin-2-ylethyl 3-{[(4-methoxyphenyl)-acetyl]amino}-6,6-dimethyl-4,6-dihydropyrrolo[3,4-c]pyrazole-5(1H)-carboxylate]"
156,10,"CN(C)C[C@@H](OC(=O)N1Cc2c(NC(=O)[C@H]3CCCO3)n[nH]c2C1(C)C)c1ccccc1 [Example 89, (S)-2-(dimethylamino)-1-phenylethyl 6,6-dimethyl-3-((R)-tetrahydrofuran-2-carboxamido)pyrrolo[3,4-c]pyrazole-5(1H,4H,6H)-carboxylate]"
251,4,"CO[C@@H](C)C(=O)Nc1n[nH]c2c1CN(C(=O)O[C@H](CN(C)C)c1ccccc1)C2(C)C [Example 90, (S)-2-(dimethylamino)-1-phenylethyl 3-((S)-2-methoxypropanamido)-6,6-dimethylpyrrolo[3,4-c]pyrazole-5(1H,4H,6H)-carboxylate]"
345,103,"CN(C)C[C@@H](OC(=O)N1Cc2c(NC(=O)[C@@H]3CCCO3)n[nH]c2C1(C)C)c1ccccc1 [Example 92, (S)-2-(dimethylamino)-1-phenylethyl 6,6-dimethyl-3-((S)-tetrahydrofuran-2-carboxamido)pyrrolo[3,4-c]pyrazole-5(1H,4H,6H)-carboxylate]"
335,178,"CN(C)CC(OC(=O)N1Cc2c(NC(=O)c3ccc(F)cc3)n[nH]c2C1(C)C)c1nccs1 (stereo not drawn) [Example 93, 2-(dimethylamino)-1-(thiazol-2-yl)ethyl 3-(4-fluorobenzamido)-6,6-dimethylpyrrolo[3,4-c] pyrazole-5(1H,4H,6H)-carboxylate]"
161,413,"CN(C)CC(OC(=O)N1Cc2c(NC(=O)c3ccc(F)cc3)n[nH]c2C1(C)C)c1cccc2cccnc12 (stereo not drawn) [Example 94, 2-(dimethylamino)-1-(quinolin-8-yl)ethyl 3-(4-fluorobenzamido)-6,6-dimethylpyrrolo[3,4-c] pyrazole-5(1H,4H,6H)-carboxylate]"
137,127,"CN(C)CC(OC(=O)N1Cc2c(NC(=O)c3ccc(F)cc3)n[nH]c2C1(C)C)c1ccc(C#N)cc1 (stereo not drawn) [Example 95, 1-(4-cyanophenyl)-2-(dimethylamino)ethyl 3-(4-fluorobenzamido)-6,6-dimethylpyrrolo[3,4-c] pyrazole-5(1H,4H,6H)-carboxylate]"
12.5,59,"CN(C)C[C@@H](NC(=O)N1Cc2c(NC(=O)c3cccc(Oc4ccccc4)c3)n[nH]c2C1(C)C)c1ccccc1 [Example 96, N-[(1S)-2-(dimethylamino)-1-phenylethyl]-6,6-dimethyl-3-[(3-phenoxybenzoyl)amino]-4,6-dihydropyrrolo[3,4-c]pyrazole-5(1H)-carboxamide]"
110,1510,"CN(C)CC(CC(=O)N1Cc2c(NC(=O)c3cccs3)n[nH]c2C1(C)C)c1ccc(Cl)cc1 (stereo not drawn) [Example 97, N-{5-[3-(4-chlorophenyl)-4-(dimethylamino)butanoyl]-6,6-dimethyl-1,4,5,6-tetrahydropyrrolo[3,4-c]pyrazol-3-yl}thiophene-2-carboxamide]"
67.9,423,"CC1(C)c2[nH]nc(NC(=O)c3cc4ccccc4s3)c2CN1C(=O)N[C@H](CO)c1ccccc1 [Example 99, 3-[(1-benzothien-2-ylcarbonyl)amino]-N-[(1S)-2-hydroxy-1-phenylethyl]-6,6-dimethyl-4,6-dihydropyrrolo[3,4-c]pyrazole-5(1H)-carboxamide]"
108,178,"CC1(C)c2[nH]nc(NC(=O)c3cccs3)c2CN1C(=O)N[C@H](CO)c1ccccc1 [Example 100, N-[(1S)-2-hydroxy-1-phenylethyl]-6,6-dimethyl-3-[(2-thienylcarbonyl)amino]-4,6-dihydropyrrolo[3,4-c]pyrazole-5(1H)-carboxamide]"
89,9,"CN(C)C[C@@H](NC(=O)N1Cc2c(NC(=O)c3nc4ccccc4s3)n[nH]c2C1(C)C)c1ccccc1 [Example 104, (S)-N-(5-((2-(dimethylamino)-1-phenylethyl)carbamoyl)-6,6-dimethyl-1,4,5,6-tetrahydropyrrolo[3,4-c]pyrazol-3-yl)benzo[d]thiazole-2-carboxamide]"
212,50,"COC(C)(C)C(=O)Nc1n[nH]c2c1CN(C(=O)O[C@H](CN(C)C)c1ccccc1)C2(C)C [Example 116, (S)-2-(dimethylamino)-1-phenylethyl 3-(2-methoxy-2-methylpropanamido)-6,6-dimethylpyrrolo[3,4-c]pyrazole-5(1H,4H, 6H)-carboxylate]"
357,8.8,"CO[C@H](C)C(=O)Nc1n[nH]c2c1CN(C(=O)O[C@H](CN(C)C)c1ccccc1)C2(C)C [Example 117, (S)-2-(dimethylamino)-1-phenylethyl 3-((R)-2-methoxypropanamido)-6,6-dimethylpyrrolo[3,4-c]pyrazole-5(1H,4H,6H)-carboxylate]"
260,52,"CN(C)C[C@@H](OC(=O)N1Cc2c(NC(=O)C3CCOC3)n[nH]c2C1(C)C)c1ccccc1 (stereo partly drawn) [Example 119, (S)-2-(dimethylamino)-1-phenylethyl 6,6-dimethyl-3-(tetrahydrofuran-3-carboxamido)pyrrolo[3,4-c]pyrazole-5(1H,4H,6H)-carboxylate]"
16.2,124,"CNC[C@@H](OC(=O)N1Cc2c(NC(=O)c3ccc(F)cc3)n[nH]c2C1(C)C)c1ccccc1 [Example 121, (S)-2-(methylamino)-1-phenylethyl 3-(4-fluorobenzamido)-6,6-dimethylpyrrolo[3,4-c]pyrazole-5(1H,4H,6H)-carboxylate]"
